These results are taken from US9078899B2, “Pyrazolyl-based carboxamides II” (Grünenthal GmbH, priority 2013, dated 2015).

A value given as a limit tells only on which side of the number the result lay.

T1 sequence (Q96D31 whole entry): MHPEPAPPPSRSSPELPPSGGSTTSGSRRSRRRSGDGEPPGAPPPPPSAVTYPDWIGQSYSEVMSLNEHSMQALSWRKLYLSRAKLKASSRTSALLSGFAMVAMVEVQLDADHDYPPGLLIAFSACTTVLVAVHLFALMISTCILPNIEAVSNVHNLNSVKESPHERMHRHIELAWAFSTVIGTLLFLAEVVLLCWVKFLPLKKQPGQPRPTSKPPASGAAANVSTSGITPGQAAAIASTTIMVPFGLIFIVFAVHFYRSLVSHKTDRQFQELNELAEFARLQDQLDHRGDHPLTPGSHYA

The first assay addresses T1, CRAC channel (Homo sapiens, UniProt Q96D31).
T1 construct: host or cells: HEK293
As to the kind of experiment: HEK Calcium Influx Assay (FLIPR). It is filed as cell-based. The settings on record: 10 μM; endogenous SOC in HEK293 cells, thapsigargin store depletion, Ca2+ signal 9.5-10 min post-administration; read-out: % inhib.[@ 10 μM] FLIPR. How it is done: The effect of compounds of the invention on intracellular [Ca^2+] was tested in the HEK293 cell line (ECACC).
HEK293 cells were cultured in DMEM/F12/Glutamax (Gibco) containing 10% FCS (Gibco), and maintained at 37° C., 5% CO2. Cell were split twice a week [3*10^6 (Mon-Thu) and 1*10^6 (Thu-Mon) cells/50 ml medium in T-175 ZK culture flasks, respectively]. Twenty four hours pre-experiment, cells were seeded on 96 well plates (Poly-D-Lysine 96well Black/Clear Plate, BD Biocoat REF 356640) at a density of 40,000 cells/well in DMEM/F12 (Gibco) containing 10% FCS (Gibco), and maintained at 37° C., 5% CO2.
Prior to store-depletion, cell culture medium was removed and cells were loaded with the a Calcium-sensitive fluorescent dye comprised within the Calcium-4-assay kit (Molecular Devices) in nominally Ca^2+-free HBS buffer (140 mM NaCl, 4 mM KCl, 0.2 mM MgCl2, 11 mM D-glucose, and 10 mM HEPES, pH 7.4) according to manufacturer's instruction for 60 min at 37° C., 5% CO2.
Passive depletion of intracellular Ca^2+-stores was then triggered by employing the SERCA inhibitor thapsigargin (2 μM final) for 10 min in the dark (RT). To prevent immediate Ca^2+-entry via the activated Store-operated channels (SOCs), cells were maintained in Ca^2+-free HBS buffer comprising 100 μM EGTA during store-depletion.
Intracellular changes in [Ca^2+] were subsequently monitored with the FLIPR device (Molecular Devices). In brief, baseline imaging post-store depletion was allowed for 1 min before adjusting the extracellular buffer to 3 mM CaCl2. Increases in intracellular [Ca^2+] due to pre-activated SOC channels were monitored for 15 min until intracellular Ca^2+ levels had declined into a steady-state. Finally, compounds were administered and Ca^2+ signals were recorded for additional 10 min.
Inhibition of endogenous SOC in HEK293 cells was quantified employing the average Ca^2+ signal measured from 9.5-10 min post-administration. Zero percent inhibition (MAX) was defined as the Ca^2+ signal recorded from wells to which DMSO-only had been added instead of compound. Hundred percent inhibition (MIN) was defined as the signal obtained from wells in which cells haven't been treated with TG prior to Ca^2+ addition and to which DMSO-only had been added instead of compound. For routine IC50 determinations of compounds, 8 concentrations of a serial dilution (1:3.16) were tested, starting off from 10 μM. Reliable IC50's could consequently be determined only, if they were at least sub 2.5-3 μM.
With `Cn1nc(C(=O)Nc2c(F)cccc2F)cc1-c1cc(F)ccc1F` [Example 5, 5-(2,5-Difluoro-phenyl)-N-(2,6-difluoro-phenyl)-1-methyl-1H-pyrazole-3-carboxylic acid amide], the inhibition at 10 µM is 50 to 70%.

Turning to `Cn1nc(C(=O)Nc2c(F)cccc2F)cc1-c1cc(C(F)(F)F)ccc1F` [Example 6, N-(2,6-Difluoro-phenyl)-5-[2-fluoro-5-(trifluoromethyl)-phenyl]-1-methyl-1H-pyrazole-3-carboxylic acid amide], the inhibition at 10 µM was over 70%. The same measure, in the same setting: the same measure for `Cn1nc(C(=O)Nc2ccncc2F)cc1-c1ccc(OC(F)(F)F)cc1Cl` [Example 11, 5-[2-Chloro-4-(trifluoromethyloxy)-phenyl]-N-(3-fluoro-pyridin-4-yl)-1-methyl-1H-pyrazole-3-carboxylic acid amide]: 50 to 70%; for `COc1ccc(OC)c(-c2cc(C(=O)Nc3ccc(S(C)(=O)=O)cc3F)nn2C)c1` [Example 13, 5-(2,5-Dimethoxyphenyl)-N-(2-fluoro-4-methylsulfonyl-phenyl)-1-methyl-1H-pyrazole-3-carboxylic acid amide]: 50 to 70%; for `COc1ccc(OC)c(-c2cc(C(=O)Nc3ccncc3C(F)(F)F)nn2C)c1` [Example 14, 5-(2,5-Dimethoxyphenyl)-1-methyl-N-[3-(trifluoromethyl)-pyridin-4-yl]-1H-pyrazole-3-carboxylic acid amide]: 50 to 70%.

Take `COc1ccc(OC)c(-c2cc(C(=O)Nc3ccncc3F)nn2C)c1` [Example 19, 5-(2,5-Dimethoxyphenyl)-N-(3-fluoro-pyridin-4-yl)-1-methyl-1H-pyrazole-3-carboxylic acid amide]: the inhibition at 10 µM was over 70%. Same read-out and setting: the same measure for `COc1ccc(Cl)cc1-c1cc(C(=O)Nc2ccncc2F)nn1C` [Example 22, 5-(5-Chloro-2-methoxy-phenyl)-N-(3-fluoro-pyridin-4-yl)-1-methyl-1H-pyrazole-3-carboxylic acid amide]: 50 to 70%; for `Cc1ccc(Cl)cc1-c1cc(C(=O)Nc2ccncc2F)nn1C` [Example 23, 5-(5-Chloro-2-methyl-phenyl)-N-(3-fluoro-pyridin-4-yl)-1-methyl-1H-pyrazole-3-carboxylic acid amide]: 50 to 70%.

For `COc1ccc(-c2cc(C(=O)Nc3ccncc3F)nn2C)c(C)c1` [Example 24, N-(3-Fluoro-pyridin-4-yl)-5-(4-methoxy-2-methyl-phenyl)-1-methyl-1H-pyrazole-3-carboxylic acid amide], the inhibition at 10 µM is over 70%.

Regarding `Cc1cnccc1NC(=O)c1cc(-c2cc(Cl)ccc2C)n(C)n1` [Example 28, 5-(5-Chloro-2-methyl-phenyl)-1-methyl-N-(3-methyl-pyridin-4-yl)-1H-pyrazole-3-carboxylic acid amide], the inhibition at 10 µM is 50 to 70%. Consider `Cc1ccc(C(F)(F)F)cc1-c1cc(C(=O)Nc2ccncc2F)nn1C` [Example 29, N-(3-Fluoro-pyridin-4-yl)-1-methyl-5-[2-methyl-5-(trifluoromethyl)-phenyl]-1H-pyrazole-3-carboxylic acid amide], for which the inhibition at 10 µM was 50 to 70%.

Turning to `COc1ccc(OC)c(-c2cc(C(=O)Nc3ccccc3F)nn2C)c1` [Example 33, 5-(2,5-Dimethoxyphenyl)-N-(2-fluorophenyl)-1-methyl-1H-pyrazole-3-carboxylic acid amide], the inhibition at 10 µM is over 70%.

As to `CCn1nc(C(=O)Nc2c(F)cccc2F)cc1-c1cc(OC)ccc1OC` [Example 37, N-(2,6-Difluoro-phenyl)-5-(2,5-dimethoxyphenyl)-1-ethyl-1H-pyrazole-3-carboxylic acid amide], the inhibition at 10 µM lay in the range of 50 to 70%. On the same count and under the same terms, the same measure for `Cn1nc(C(=O)Nc2c(F)cccc2F)cc1-c1cc(C(F)(F)F)ccc1C#N` [Example 38, 5-[2-Cyano-5-(trifluoromethyl)-phenyl]-N-(2,6-difluoro-phenyl)-1-methyl-1H-pyrazole-3-carboxylic acid amide]: 50 to 70%; for `COc1ccc(OC)c(-c2cc(C(=O)Nc3c(F)cccc3F)n[nH]2)c1` [Example 41, N-(2,6-Difluoro-phenyl)-5-(2,5-dimethoxyphenyl)-1H-pyrazole-3-carboxylic acid amide]: over 70%.

Regarding `COc1ccc(OC)c(-c2c(N)c(C(=O)Nc3ccncc3F)nn2C)c1` [Example 48, 4-Amino-5-(2,5-dimethoxyphenyl)-N-(3-fluoro-pyridin-4-yl)-1-methyl-1H-pyrazole-3-carboxylic acid amide], the inhibition at 10 µM was over 70%. Still for that read-out and setting: the same measure for `Cn1nc(C(=O)Nc2c(F)cccc2F)cc1-c1c(F)cccc1F` [Example 50, N,5-Bis(2,6-difluoro-phenyl)-1-methyl-1H-pyrazole-3-carboxylic acid amide]: 50 to 70%; for `Cc1cccc(Cl)c1NC(=O)c1cc(-c2c(F)cccc2F)n(C)n1` [Example 52, N-(2-Chloro-6-methyl-phenyl)-5-(2,6-difluoro-phenyl)-1-methyl-1H-pyrazole-3-carboxylic acid amide]: 50 to 70%; for `Cc1cncc(F)c1NC(=O)c1cc(-c2c(F)cccc2F)n(C)n1` [Example 53, 5-(2,6-Difluoro-phenyl)-N-(3-fluoro-5-methyl-pyridin-4-yl)-1-methyl-1H-pyrazole-3-carboxylic acid amide]: 50 to 70%. The same measure, in the same setting: under `Cn1nc(C(=O)Nc2ccccc2OC(F)(F)F)cc1-c1c(F)cccc1C(F)(F)F` [Example 54, 5-[2-Fluoro-6-(trifluoromethyl)-phenyl]-1-methyl-N-[2-(trifluoromethyloxy)-phenyl]-1H-pyrazole-3-carboxylic acid amide] stands 50 to 70%. Still for that read-out and setting: under `Cn1nc(C(=O)Nc2ccc(F)cc2F)cc1-c1c(F)cccc1C(F)(F)F` [Example 55, N-(2,4-Difluoro-phenyl)-5-[2-fluoro-6-(trifluoromethyl)-phenyl]-1-methyl-1H-pyrazole-3-carboxylic acid amide] stands 50 to 70%; under `Cn1nc(C(=O)Nc2ccccc2C#N)cc1-c1c(F)cccc1C(F)(F)F` [Example 56, N-(2-Cyano-phenyl)-5-[2-fluoro-6-(trifluoromethyl)-phenyl]-1-methyl-1H-pyrazole-3-carboxylic acid amide], 50 to 70%; under `COc1cc(F)c(NC(=O)c2cc(-c3c(F)cccc3C(F)(F)F)n(C)n2)c(F)c1` [Example 58, N-(2,6-Difluoro-4-methoxy-phenyl)-5-[2-fluoro-6-(trifluoromethyl)-phenyl]-1-methyl-1H-pyrazole-3-carboxylic acid amide], 50 to 70%. For the compound `Cc1cccc(F)c1NC(=O)c1cc(-c2c(F)cccc2C(F)(F)F)n(C)n1` [Example 59, N-(2-Fluoro-6-methyl-phenyl)-5-[2-fluoro-6-(trifluoromethyl)-phenyl]-1-methyl-1H-pyrazole-3-carboxylic acid amide], the inhibition at 10 µM was over 70%. `Cn1nc(C(=O)Nc2ccccc2C(F)(F)F)cc1-c1c(F)cccc1C(F)(F)F` [Example 60, 5-[2-Fluoro-6-(trifluoromethyl)-phenyl]-1-methyl-N-[2-(trifluoromethyl)-phenyl]-1H-pyrazole-3-carboxylic acid amide]: the inhibition at 10 µM is over 70%. As to `Cn1nc(C(=O)Nc2ccccc2F)cc1-c1c(F)cccc1C(F)(F)F` [Example 61, N-(2-Fluorophenyl)-5-[2-fluoro-6-(trifluoromethyl)-phenyl]-1-methyl-1H-pyrazole-3-carboxylic acid amide], the inhibition at 10 µM was over 70%. On the same count and under the same terms, under `Cn1nc(C(=O)Nc2ccncc2F)cc1-c1c(F)cccc1C(F)(F)F` [Example 62, N-(3-Fluoro-pyridin-4-yl)-5-[2-fluoro-6-(trifluoromethyl)-phenyl]-1-methyl-1H-pyrazole-3-carboxylic acid amide] stands over 70%.

The same assay, now with this note: HEK293, read-out: % inhib.[@ 10 μM] FLIPR.
As for `Cn1nc(C(=O)Nc2ccc(Cl)cc2Cl)cc1-c1c(F)cccc1C(F)(F)F` [Example 57, N-(2,4-Dichlorophenyl)-5-[2-fluoro-6-(trifluoromethyl)-phenyl]-1-methyl-1H-pyrazole-3-carboxylic acid amide], the inhibition at 10 µM lay within 50 to 70%.
